Measurements reported in patent US20060167229A1, “Biologically active peptide conjugates” (priority 2002, published 2006).
“Also recorded” adds a separate entry of the source. Marks after values point to notes of the source that are not given here. Ends that are not written are not given here.

How the values were obtained:
Type in all cases: in vivo, BALB/c mice
[1] = tested on: mononuclear phagocyte; assay: Carbon particle clearance test, phagocytosis function; parameters: key to X ± SD (phagocytotic index): α = cube root of K × (body weight ÷ liver+spleen weight); conditions: for X ± SD (phagocytotic index): healthy mice, saline 5.1 ± 0.6; for effect on the phagocytotic activity of mononuclear phagocyte (summary): statistically significant difference from saline in any of the dosage groups 0.5-500 μg/kg/day
Method in brief: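 Clearance index K came from OD680 of blood sampled 1 and 5 min after tail-vein India ink ([…], diluted 5×), given on day 16. Phagocytic index α combined K with liver, spleen […] weights taken the same day.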

[2] = tested on: NK cell; assay: NK cell cytotoxicity activity test (spleen cells of treated mice against YAC-1 target cells, MTT); conditions: for NK cell cytotoxic activity, X ± SD (%): healthy mice; for effect on the cytotoxic activity of NK cells (summary): statistically significant difference from saline in any of the dosage groups 0.5-500 μg/kg/day
Method in brief: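 Mice (10 per group) dosed i.p. once daily for 15 days in saline; spleen cells harvested the next day. Splenocytes (4×10^6/ml) co-cultured with YAC-1 targets (1×10^5/ml), in triplicate per mouse. Viability by MTT (1 mg/ml, 4 h, 37 °C), read at OD570 against 630 nm.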

[3] = tested on: anti-SRBC antibody; assay: Sheep Red Blood Cell (SRBC) hemolysis test, antibody formation; conditions: for anti-SRBC antibody formation, X ± SD (Unit): healthy mice, SRBC day 12 (IFN-γ, IL-2 3×10^5 IU/kg/day), saline 32 ± 7; for effect on the synthesis of anti-SRBC antibody upon the antigenic challenge (summary): statistically significant difference from saline in any of the dosage groups 0.5-500 μg/kg/day
Method in brief: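 Mice immunized intraperitoneally with 0.2 ml SRBC on day 12; serum taken on day 16, diluted 500-fold. Serum incubated with 2% SRBC and guinea pig complement 10 min at 37° C; released haemoglobin read at OD540 with Drabkin solution. Serum index = (sample OD540 ÷ reference OD540) × 500.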

[4] = tested on: thymus gland; assay: Immunity organ weight test, thymus gland index; conditions: for weight of thymus gland (thymus gland index), X ± SD (%): healthy mice, saline 0.12 ± 0.02; for effect on the weight of the thymus gland (summary): statistically significant difference from saline in any of the dosage groups 0.5-500 μg/kg/day
Experimental: One day after the last test substance administration (day 16), the liver, spleen, and thymus gland were separated and blotted dry with filter paper and weighed. The phagocytosis index α was calculated as below: α=(^3√{square root over ( )}K)(W÷WLS)
Thymus gland index (%)=(thymus weight/body weight)×100%

[5] = peptide 5 μg/kg/day i.p. 15 days (IFN-γ, IL-2 3×10^5 IU/kg/day)
[6] = peptide 500 μg/kg/day i.p. 15 days (IFN-γ, IL-2 3×10^5 IU/kg/day)
[7] = peptide 50 μg/kg/day i.p. 15 days (IFN-γ, IL-2 3×10^5 IU/kg/day), saline 56 ± 8
[8] = peptide 0.5 μg/kg/day i.p. 15 days
[9] = peptide 5 μg/kg/day i.p. 15 days
[10] = peptide 50 μg/kg/day i.p. 15 days
[11] = peptide 500 μg/kg/day i.p. 15 days
[12] = peptide 50 μg/kg/day i.p. 15 days (IFN-γ, IL-2 3×10^5 IU/kg/day)
[13] = peptide 500 μg/kg/day i.p. 15 days (IFN-γ, IL-2 3×10^5 IU/kg/day), saline 63 ± 9
[14] = peptide 0.5 μg/kg/day i.p. 15 days (IFN-γ, IL-2 3×10^5 IU/kg/day)
[15] = peptide 0.5 μg/kg/day i.p. 15 days (IFN-γ, IL-2 3×10^5 IU/kg/day), saline 58 ± 7
[16] = peptide 5 μg/kg/day i.p. 15 days (IFN-γ, IL-2 3×10^5 IU/kg/day), saline 60 ± 9

Substance | X ± SD (phagocytotic index) [1, 5] | X ± SD (phagocytotic index) [1, 6] | effect on the phagocytotic activity of mononuclear phagocyte (summary) [1] | NK cell cytotoxic activity, X ± SD (%) [2, 7] [%] | effect on the cytotoxic activity of NK cells (summary) [2] | anti-SRBC antibody formation, X ± SD (Unit) [3, 8] [Unit] | anti-SRBC antibody formation, X ± SD (Unit) [3, 9] | anti-SRBC antibody formation, X ± SD (Unit) [3, 10] | anti-SRBC antibody formation, X ± SD (Unit) [3, 11] | weight of thymus gland (thymus gland index), X ± SD (%) [4, 5] | weight of thymus gland (thymus gland index), X ± SD (%) [4, 12] | weight of thymus gland (thymus gland index), X ± SD (%) [4, 6] | effect on the weight of the thymus gland (summary) [4] | NK cell cytotoxic activity, X ± SD (%) [2, 13] | effect on the synthesis of anti-SRBC antibody upon the antigenic challenge (summary) [3] | weight of thymus gland (thymus gland index), X ± SD (%) [4, 14] | NK cell cytotoxic activity, X ± SD (%) [2, 15] [%] | NK cell cytotoxic activity, X ± SD (%) [2, 16] | X ± SD (phagocytotic index) [1, 12]
FNFVPP [CMS003] | 6.9 ± 0.9*^ | 6.6 ± 0.7 | enhance | 85 ± 6 | increase | 2 ± 1 | 91 ± 24*^@ Unit | 52 ± 11 Unit | 96 ± 18*^@ Unit |  |  |  |  |  |  |  |  |  | 
IGMESAGIHETTY [CMS016] | 6.9 ± 0.8*^ |  | enhance |  | increase |  | 93 ± 32*^@ Unit |  | 143 ± 38*^@^ Unit | 0.22 ± 0.06 % | 0.20 ± 0.03*^@^ % | 0.18 ± 0.05 % | increase | 91 ± 7*^@^ % | enhance |  |  |  | 
KAVGHLDDLPGAL [CMS008] | 6.4 ± 0.5 | 6.5 ± 1.2 | enhance |  |  |  | 97 ± 26*^@ Unit |  | 82 ± 15*^@ Unit |  | 0.20 ± 0.04*^@^ % | 0.21 ± 0.03*^@^ % | increase |  | enhance | 0.22 ± 0.07*^ % | 46 ± 12 | 92 ± 4*^@^ % | 
LGMQACGIHETTY [CMS012] |  |  |  | 40 ± 9 |  |  | 81 ± 22*^@ Unit | 50 ± 14 Unit | 141 ± 21*^@^ Unit | 0.27 ± 0.06*^@^ % | 0.26 ± 0.02*^@^ % |  | increase |  | enhance | 0.22 ± 0.06*^ % | 77 ± 6 | 85 ± 7 % | 
LRVAPQQHPTL [CMS009] | 6.9 ± 0.9*^ |  | enhance |  | increase | 2 ± 1 | 79 ± 18*^@ Unit | 13 ± 5 Unit | 113 ± 22*^@^ Unit |  |  |  |  |  |  |  |  | 92 ± 6*^@^ % | 
PTTKTYFPHF [CMS001] |  |  |  | 85 ± 10 | increase |  | 110 ± 24*^@ Unit |  |  | 0.22 ± 0.05 % |  |  | increase |  | enhance |  |  |  | 
Phe Gln Gln Gln (FQQQ; printed: Phe Gln Gln Gln) [CMS032] |  |  |  |  | increase |  | 157 ± 37*^@^ Unit | 131 ± 24*^@^ Unit |  | 0.29 ± 0.04*^@^ % | 0.27 ± 0.03*^@^ % | 0.25 ± 0.03*^@^ % | increase | 87 ± 5 % | enhance | 0.21 ± 0.06 % |  |  | 
Pro Gln Asn Phe (PQNF; printed: Pro Gln Asn Phe) [CMS034] |  |  |  |  | increase | 20 ± 2 | 172 ± 37*^@^ Unit | 136 ± 11*^@^ Unit |  | 0.27 ± 0.06*^@^ % | 0.19 ± 0.04*^ % | 0.20 ± 0.05*^ % | increase | 85 ± 9 % | enhance; also recorded: inhibit |  |  | 90 ± 5 % | 
Pro Ser Ile Vat Gly Arg Pro Arg His Gln Gly Val Met (PSIVGRPRHQGVM; listed as Sus scrofa) [CMS015] |  |  |  | 78 ± 8 | increase | 13 ± 4 | 94 ± 37*^@ Unit | 54 ± 9*^@ Unit | 136 ± 22*^@^ Unit | 0.20 ± 0.08 % |  |  | increase |  | enhance; also recorded: inhibit |  |  |  | 
VGMGQKDSY | 6.8 ± 0.6*^ |  | enhance |  |  | 12 ± 3 | 118 ± 20*^@^ Unit |  | 91 ± 26*^@ Unit | 0.24 ± 0.02*^@^ % | 0.20 ± 0.03*^@^ % | 0.19 ± 0.02 % | increase |  |  |  |  |  | 6.7 ± 0.9*^
